Values after ≈ are worked out from the molar mass of the structure shown.
Assay: Solubility of celecoxib in aqueous media
Assay type: physicochemical
Procedure: However, celecoxib presents certain challenges for formulation as a rapid-onset dosage form, particularly as a rapid-onset oral dosage form. For example, celecoxib has very low solubility in aqueous media (about 2 to about 5 μg/ml) and therefore is not readily dissolved and dispersed for rapid absorption in the gastrointestinal tract when administered orally, for example in tablet or capsule form. In addition, celecoxib has a relatively high dose requirement further increasing difficulties of providing a sufficient therapeutically effective dose for rapid absorption.

solubility: 2 to 5 µg/mL (≈ 5.24 to 13.1 µM)
SMILES: Cc1ccc(-c2cc(C(F)(F)F)nn2-c2ccc(S(N)(=O)=O)cc2)cc1 [celecoxib, 4-[5-(4-methylphenyl)-3-(trifluoromethyl)-1H-pyrazol-1-yl]benzenesulfonamide]

— patent US6864373B2, “Stable amorphous celecoxib composite and process therefor” (Pharmacia Corporation, priority 2002, dated 2005)
